From patent US11053204B2, “Pyrimidinyloxy benzene derivatives as herbicides” (FMC Corporation, priority 2015, dated 2021)

Columns and labels:
Assay type in all cases: in vivo
[1] = tested on: Italian ryegrass (Lolium multiflorum); experiment: Test A postemergence, visual injury rating; details: 0 is no effect, 100 is complete control; for Ryegrass, Italian plant response rating: 0 to 100 scale, approximately 10 days
In short: (§1)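 Compounds in non-phytotoxic solvent with surfactant applied as soil spray preemergence, or postemergence to plants 2-10 cm at one- to two-leaf stage, in loam/sand. After approximately 10 days in greenhouse, injury rated visually versus untreated controls, 0 (no effect) to 100 (complete control).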

[2] = tested on: barnyardgrass (Echinochloa crus-galli); experiment: Test A postemergence, visual injury rating; details: 0 is no effect, 100 is complete control; for Barnyardgrass plant response rating: 0 to 100 scale, approximately 10 days
In short: as §1

[3] = tested on: blackgrass (Alopecurus myosuroides); experiment: Test A postemergence, visual injury rating; details: 0 is no effect, 100 is complete control; for Blackgrass plant response rating: 0 to 100 scale, approximately 10 days
In short: as §1

corn (Zea mays) = experiment: Test A postemergence, visual injury rating; details: 0 is no effect, 100 is complete control; for Corn plant response rating: 0 to 100 scale, approximately 10 days
In short: as §1

[4] = tested on: galium (catchweed bedstraw, Galium aparine); experiment: Test A postemergence, visual injury rating; details: 0 is no effect, 100 is complete control; for Galium plant response rating: 0 to 100 scale, approximately 10 days
In short: as §1

[5] = tested on: giant foxtail (Setaria faberii); experiment: Test A postemergence, visual injury rating; details: 0 is no effect, 100 is complete control; for Foxtail, Giant plant response rating: 0 to 100 scale, approximately 10 days
In short: as §1

kochia (Kochia scoparia) = experiment: Test A postemergence, visual injury rating; details: 0 is no effect, 100 is complete control; for Kochia plant response rating: 0 to 100 scale, approximately 10 days
In short: as §1

[6] = tested on: pigweed (Amaranthus retroflexus); experiment: Test A postemergence, visual injury rating; details: 0 is no effect, 100 is complete control; for Pigweed plant response rating: 0 to 100 scale, approximately 10 days
In short: as §1

[7] = tested on: ragweed (common ragweed, Ambrosia elatior); experiment: Test A postemergence, visual injury rating; details: 0 is no effect, 100 is complete control; for Ragweed plant response rating: 0 to 100 scale, approximately 10 days
In short: as §1

[8] = tested on: wheat (Triticum aestivum); experiment: Test A postemergence, visual injury rating; details: 0 is no effect, 100 is complete control; for Wheat plant response rating: 0 to 100 scale, approximately 10 days
In short: as §1

[9] = tested on: chickweed (common chickweed, Stellaria media); experiment: Test C postemergence, plant response rating; details: for Chickweed plant response rating: scale 0 to 100 (0 no effect, 100 complete control)
In short: (§2)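 Both timings shared one formulation, a non-phytotoxic solvent mixture with surfactant, and a greenhouse period of 13 to 15 d. Preemergence used seeded loam/sand or silt loam soil, postemergence used 2 to 18 cm plants; visual ratings ran from 0 (no effect) to 100 (complete control).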

[10] = tested on: foxtail, giant (giant foxtail, Setaria faberii); experiment: Test C postemergence, plant response rating; details: for Foxtail, Giant plant response rating: scale 0 to 100 (0 no effect, 100 complete control)
In short: as §2

[11] = tested on: lambsquarters (Chenopodium album); experiment: Test C postemergence, plant response rating; details: for Lambsquarters plant response rating: scale 0 to 100 (0 no effect, 100 complete control)
In short: as §2

[12] = tested on: oat, wild (wild oat Avena fatua); experiment: Test C postemergence, plant response rating; details: for Oat, Wild plant response rating: scale 0 to 100 (0 no effect, 100 complete control)
In short: as §2

[13] = tested on: ragweed (common ragweed, Ambrosia elatior); experiment: Test C postemergence, plant response rating; details: for Ragweed plant response rating: scale 0 to 100 (0 no effect, 100 complete control)
In short: as §2

[14] = tested on: ryegrass, Italian (Italian ryegrass, Lolium multiflorum); experiment: Test C postemergence, plant response rating; details: for Ryegrass, Italian plant response rating: scale 0 to 100 (0 no effect, 100 complete control)
In short: as §2

soybean (Glycine max) = experiment: Test C postemergence, plant response rating; details: for Soybean plant response rating: scale 0 to 100 (0 no effect, 100 complete control)
In short: as §2

[15] = tested on: velvetleaf (Abutilon theophrasti); experiment: Test C postemergence, plant response rating; details: for Velvetleaf plant response rating: 125 g ai/ha, scale 0 to 100 (0 no effect, 100 complete control)
In short: as §2

[16] = tested on: waterhemp (common waterhemp, Amaranthus rudis); experiment: Test C postemergence, plant response rating; details: for Waterhemp plant response rating: 125 g ai/ha, scale 0 to 100 (0 no effect, 100 complete control)
In short: as §2

O=C(CCCC(F)(F)F)c1c(Oc2ncc(Cl)cn2)cccc1C(F)(F)F [Compound 125]
Ryegrass, Italian plant response rating ([1]; 125 g ai/ha): 20
Ryegrass, Italian plant response rating (0 to 100 scale) ([1]; 500 g ai/ha): 90
Barnyardgrass plant response rating ([2]; 125 g ai/ha): 30
Barnyardgrass plant response rating (0 to 100 scale) ([2]; 500 g ai/ha): 90
Blackgrass plant response rating ([3]; 125 g ai/ha): 30
Blackgrass plant response rating (0 to 100 scale) ([3]; 500 g ai/ha): 90
Corn plant response rating (corn (Zea mays); 125 g ai/ha): 10
Corn plant response rating (0 to 100 scale) (corn (Zea mays); 500 g ai/ha): 30
Galium plant response rating ([4]; 125 g ai/ha): 100
Galium plant response rating (0 to 100 scale) ([4]; 500 g ai/ha): 100
Foxtail, Giant plant response rating ([5]; 125 g ai/ha): 50
Foxtail, Giant plant response rating (0 to 100 scale) ([5]; 500 g ai/ha): 90
Kochia plant response rating (kochia (Kochia scoparia); 125 g ai/ha): 100
Kochia plant response rating (0 to 100 scale) (kochia (Kochia scoparia); 500 g ai/ha): 100
Pigweed plant response rating ([6]; 125 g ai/ha): 100
Pigweed plant response rating (0 to 100 scale) ([6]; 500 g ai/ha): 100
Ragweed plant response rating ([7]; 125 g ai/ha): 30
Ragweed plant response rating (0 to 100 scale) ([7]; 500 g ai/ha): 40
Wheat plant response rating ([8]; 125 g ai/ha): 20
Wheat plant response rating (0 to 100 scale) ([8]; 500 g ai/ha): 30
Plant response rating, Chickweed ([9]; 16 g ai/ha, scale of 0 to 100): 70
Plant response rating, Chickweed ([9]; 31 g ai/ha, scale 0 to 100): 75
Chickweed plant response rating ([9]; 62 g ai/ha): 90
Chickweed plant response rating ([9]; 125 g ai/ha): 98
Plant response rating, Foxtail, Giant ([10]; 16 g ai/ha, scale of 0 to 100): 10
Plant response rating, Foxtail, Giant ([10]; 31 g ai/ha, scale 0 to 100): 10
Foxtail, Giant plant response rating ([10]; 62 g ai/ha): 10
Foxtail, Giant plant response rating ([10]; 125 g ai/ha): 25
Plant response rating, Lambsquarters ([11]; 16 g ai/ha, scale of 0 to 100): 70
Plant response rating, Lambsquarters ([11]; 31 g ai/ha, scale 0 to 100): 98
Lambsquarters plant response rating ([11]; 62 g ai/ha): 95
Lambsquarters plant response rating ([11]; 125 g ai/ha): 100
Plant response rating, Oat, Wild ([12]; 16 g ai/ha, scale of 0 to 100): 5
Plant response rating, Oat, Wild ([12]; 31 g ai/ha, scale 0 to 100): 10
Oat, Wild plant response rating ([12]; 62 g ai/ha): 15
Oat, Wild plant response rating ([12]; 125 g ai/ha): 15
Plant response rating, Ragweed ([13]; 16 g ai/ha, scale of 0 to 100): 5
Plant response rating, Ragweed ([13]; 31 g ai/ha, scale 0 to 100): 35
Ragweed plant response rating ([13]; 62 g ai/ha): 45
Ragweed plant response rating ([13]; 125 g ai/ha): 55
Plant response rating, Ryegrass, Italian ([14]; 16 g ai/ha, scale of 0 to 100): 5
Plant response rating, Ryegrass, Italian ([14]; 31 g ai/ha, scale 0 to 100): 5
Ryegrass, Italian plant response rating ([14]; 62 g ai/ha): 10
Ryegrass, Italian plant response rating ([14]; 125 g ai/ha): 15
Plant response rating, Soybean (soybean (Glycine max); 16 g ai/ha, scale of 0 to 100): 25
Plant response rating, Soybean (soybean (Glycine max); 31 g ai/ha, scale 0 to 100): 60
Soybean plant response rating (soybean (Glycine max); 62 g ai/ha): 65
Soybean plant response rating (soybean (Glycine max); 125 g ai/ha): 70
Plant response rating, Velvetleaf ([15]; 16 g ai/ha, scale of 0 to 100): 20
Plant response rating, Velvetleaf ([15]; 31 g ai/ha, scale 0 to 100): 35
Velvetleaf plant response rating [15]: 30
Plant response rating, Waterhemp ([16]; 16 g ai/ha, scale of 0 to 100): 75
Plant response rating, Waterhemp ([16]; 31 g ai/ha, scale 0 to 100): 80
Waterhemp plant response rating [16]: 90

O=C(CCC(F)(F)C(F)(F)F)c1c(Br)cccc1Oc1ncc(Cl)cn1 [Compound 110]
Ryegrass, Italian plant response rating ([1]; 31 g ai/ha): 0
Ryegrass, Italian plant response rating ([1]; 125 g ai/ha): 20
Barnyardgrass plant response rating ([2]; 31 g ai/ha): 30
Barnyardgrass plant response rating ([2]; 125 g ai/ha): 60
Blackgrass plant response rating ([3]; 31 g ai/ha): 0
Blackgrass plant response rating ([3]; 125 g ai/ha): 50
Corn plant response rating (corn (Zea mays); 31 g ai/ha): 20
Corn plant response rating (corn (Zea mays); 125 g ai/ha): 50
Galium plant response rating ([4]; 31 g ai/ha): 70
Galium plant response rating ([4]; 125 g ai/ha): 100
Foxtail, Giant plant response rating ([5]; 31 g ai/ha): 30
Foxtail, Giant plant response rating ([5]; 125 g ai/ha): 90
Kochia plant response rating (kochia (Kochia scoparia); 31 g ai/ha): 100
Kochia plant response rating (kochia (Kochia scoparia); 125 g ai/ha): 100
Pigweed plant response rating ([6]; 31 g ai/ha): 90
Pigweed plant response rating ([6]; 125 g ai/ha): 100
Ragweed plant response rating ([7]; 31 g ai/ha): 0
Ragweed plant response rating ([7]; 125 g ai/ha): 0
Wheat plant response rating ([8]; 31 g ai/ha): 0
Wheat plant response rating ([8]; 125 g ai/ha): 20
Plant response rating, Chickweed ([9]; 16 g ai/ha, scale of 0 to 100): 60
Plant response rating, Chickweed ([9]; 31 g ai/ha, scale 0 to 100): 95
Chickweed plant response rating ([9]; 62 g ai/ha): 95
Chickweed plant response rating ([9]; 125 g ai/ha): 90
Plant response rating, Foxtail, Giant ([10]; 16 g ai/ha, scale of 0 to 100): 10
Plant response rating, Foxtail, Giant ([10]; 31 g ai/ha, scale 0 to 100): 10
Foxtail, Giant plant response rating ([10]; 62 g ai/ha): 25
Foxtail, Giant plant response rating ([10]; 125 g ai/ha): 25
Plant response rating, Lambsquarters ([11]; 16 g ai/ha, scale of 0 to 100): 75
Plant response rating, Lambsquarters ([11]; 31 g ai/ha, scale 0 to 100): 90
Lambsquarters plant response rating ([11]; 62 g ai/ha): 95
Lambsquarters plant response rating ([11]; 125 g ai/ha): 98
Plant response rating, Oat, Wild ([12]; 16 g ai/ha, scale of 0 to 100): 20
Plant response rating, Oat, Wild ([12]; 31 g ai/ha, scale 0 to 100): 30
Oat, Wild plant response rating ([12]; 62 g ai/ha): 45
Oat, Wild plant response rating ([12]; 125 g ai/ha): 55
Plant response rating, Ragweed ([13]; 16 g ai/ha, scale of 0 to 100): 40
Plant response rating, Ragweed ([13]; 31 g ai/ha, scale 0 to 100): 50
Ragweed plant response rating ([13]; 62 g ai/ha): 60
Ragweed plant response rating ([13]; 125 g ai/ha): 60
Plant response rating, Ryegrass, Italian ([14]; 16 g ai/ha, scale of 0 to 100): 5
Plant response rating, Ryegrass, Italian ([14]; 31 g ai/ha, scale 0 to 100): 10
Ryegrass, Italian plant response rating ([14]; 62 g ai/ha): 15
Ryegrass, Italian plant response rating ([14]; 125 g ai/ha): 20
Plant response rating, Soybean (soybean (Glycine max); 16 g ai/ha, scale of 0 to 100): 40
Plant response rating, Soybean (soybean (Glycine max); 31 g ai/ha, scale 0 to 100): 40
Soybean plant response rating (soybean (Glycine max); 62 g ai/ha): 50
Soybean plant response rating (soybean (Glycine max); 125 g ai/ha): 35
Plant response rating, Velvetleaf ([15]; 16 g ai/ha, scale of 0 to 100): 50
Plant response rating, Velvetleaf ([15]; 31 g ai/ha, scale 0 to 100): 40
Velvetleaf plant response rating [15]: 75
Plant response rating, Waterhemp ([16]; 16 g ai/ha, scale of 0 to 100): 85
Plant response rating, Waterhemp ([16]; 31 g ai/ha, scale 0 to 100): 90
Waterhemp plant response rating [16]: 95
